Laboratory results reported in PubChem BioAssay (NCI).
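A five-concentration, 48-hour dose response in 96-well plates underlies each endpoint, interpolated linearly between surrounding concentrations. At the GI50, growth is halved. TGI marks complete inhibition of growth.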 Where a SMILES comes first, the peptide text is derived from it.

Tests used:
Test in all cases: NCI tumour cell line growth inhibition, 48 h
SNB-75 CNS = tested on: SNB-75 CNS
DU-145 prostate = tested on: DU-145 prostate
786-0 renal = tested on: 786-0 renal
A549 NSCLC = tested on: A549 NSCLC
TK-10 renal = tested on: TK-10 renal
HL-60(TB) leukemia = tested on: HL-60(TB) leukemia
HS 578T breast = tested on: HS 578T breast
DMS 273 small cell lung = tested on: DMS 273 small cell lung
SNB-78 CNS = tested on: SNB-78 CNS
XF 498 CNS = tested on: XF 498 CNS
M19-MEL melanoma = tested on: M19-MEL melanoma
RXF-631 renal = tested on: RXF-631 renal
KM20L2 colon = tested on: KM20L2 colon
DMS 114 small cell lung = tested on: DMS 114 small cell lung

Row | Structure (SMILES) | TGI (SNB-75 CNS) [µM] | TGI (DU-145 prostate) [µM] | TGI (786-0 renal) [µM] | TGI (A549 NSCLC) [µM] | TGI (TK-10 renal) [µM] | TGI (HL-60(TB) leukemia) [µM] | TGI (HS 578T breast) [µM] | TGI (DMS 273 small cell lung) [µM] | TGI (SNB-78 CNS) [µM] | TGI (XF 498 CNS) [µM] | TGI (M19-MEL melanoma) [µM] | TGI (RXF-631 renal) [µM] | TGI (KM20L2 colon) [µM] | TGI (DMS 114 small cell lung) [µM] | GI50 (SNB-75 CNS) [µM] | GI50 (DU-145 prostate) [µM] | GI50 (A549 NSCLC) [µM] | GI50 (TK-10 renal) [µM] | GI50 (HL-60(TB) leukemia) [µM] | GI50 (HS 578T breast) [µM]
1 | COc1cc2c(cc1OCCCCCCCCN1C(=O)c3cccc4cccc(c34)C1=O)N=C[C@@H]1CCCN1C2=O | 10.3 | > 100 | > 100 | > 100 | > 100 | 52.3 | > 100 |  |  |  |  |  |  |  |  |  |  |  |  | 
2 | N#Cc1c(N)nc2c(c1-c1ccc(Br)cc1)CSc1ccccc1-2 | > 100 | > 100 | > 100 | > 100 | > 100 | 98.5 | > 100 |  |  |  |  |  |  |  |  |  |  |  |  | 
3 | Cc1cnoc1NS(=O)(=O)c1ccc(Nc2nnc(/C=C/c3c(O)ccc4ccccc34)c(=O)n2N)cc1 | 77 | > 100 | 77.1 | > 100 |  | 22.4 | > 100 |  |  |  |  |  |  |  |  |  |  |  |  | 
4 | COc1ccc(C2c3cc4c(cc3OC(O)(CO)C2C(=O)O)OCO4)cc1 (centres undefined) (tested in a mixture with another compound) | 78.3 |  |  | > 100 | > 100 | 41.7 |  | 17.7 | 59 | 16.6 | 21.3 | 42.9 | > 100 | 61.3 |  |  |  |  |  | 
5 | COc1cc([C@@H]2c3cc4c(cc3[C@@H](c3c(O)cc(O)c5c3O[C@H](c3ccc(O)c(O)c3)[C@H](OC(=O)c3cc(O)c(O)c(O)c3)C5)[C@H]3COC(=O)[C@H]23)OCO4)cc(OC)c1OC | > 100 | > 100 | > 100 | > 100 | > 100 | 0.729 | > 100 |  |  |  |  |  |  |  |  |  |  |  |  | 
6 | O=c1c2ccccc2[nH]c(=S)n1-c1ccc(N=Nc2cccc3cc(O)ccc23)cc1 | > 100 | > 100 | > 100 | > 100 | > 100 | > 100 | > 100 |  |  |  |  |  |  |  |  |  |  |  |  | 
7 | O=C1CC2(CCC(O)(c3cccs3)C(C(=O)c3cccs3)C2)C(=O)c2ccccc2N1 (centres undefined) | > 100 | > 100 |  | > 100 | > 100 | > 100 | > 100 |  |  |  |  |  |  |  |  |  |  |  |  | 
8 | O=C1c2ccccc2C(C2c3ccccc3C(=O)c3cc(Br)ccc32)c2ccc(Br)cc21 (centres undefined) | > 100 | > 100 | > 100 | > 100 | > 100 |  | > 100 |  |  |  |  |  |  |  |  |  |  |  |  | 
9 | COC1CC(CC2CCC(C)C(C(C)C(=O)O)O2)OC2(OC(C)(C3CCC(C)(C4OC(C5OC(O)(CO)C(C)CC5C)CC4C)O3)CC2C)C1C (centres undefined) | 8.7 | > 100 | 30.5 | 21.8 | 36.8 | 1.1 | > 35.2 | 10.4 | 68.3 | 1.01 | 2.18 | 12.9 | 11 | 1.03 |  |  |  |  |  | 
10 | CC(C)(C)[Si](C)(C)OCC1OC(n2cnc3c(N)ncnc32)CC1OS(C)(=O)=O (centres undefined) |  | > 100 |  |  | > 100 | > 100 |  |  |  |  |  |  |  |  |  |  |  |  |  | 
11 | Nc1ccc(-c2nc3cc(F)ccc3s2)cc1CO | 36.8 | > 100 | > 100 | > 100 |  | > 100 | > 100 |  |  |  |  |  |  |  |  |  |  |  |  | 
12 | CCOC(=O)C(=O)NCCCN1CCOCC1 | > 100 |  |  | > 100 | > 100 | > 100 |  | > 100 | > 100 | > 100 | > 100 | > 100 | > 100 | > 100 |  |  |  |  |  | 
13 | CCCSc1ccc2[nH]c(N3C(=O)/C(=C/c4cc(OC)c(OC)c(OC)c4)N=C3c3ccccc3)cc2c1 | 33.5 | > 37.5 | > 25 | > 25.3 | > 37.5 | 17.3 | > 37.5 |  |  |  |  |  |  |  |  |  |  |  |  | 
14 | COC(=S)OC1CC(n2cnc3c(N)ncnc32)OC1CO[Si](C)(C)C(C)(C)C (centres undefined) |  | 38.5 |  |  | > 100 | > 100 |  |  |  |  |  |  |  |  |  |  |  |  |  | 
15 | COC(=O)C[C@H](COCc1ccccc1)NC(=O)C[C@H](COCc1ccccc1)NC(=O)OC(C)(C)C | 61.2 | 44.9 | 40.8 | 62.4 |  | > 100 | 67.1 |  |  |  |  |  |  |  |  |  |  |  |  | 
16 | O=C(O)C(O)C(O)C(O)C(=O)CO (centres undefined) | > 100 | > 100 | > 100 | > 100 | > 100 | > 100 | > 100 |  |  |  |  |  |  |  |  |  |  |  |  | 
17 | O=C1/C(=C\c2ccc(F)cc2)CCOc2c1ccc1ccccc21 | > 66.1 | 98 | 62.5 | > 70.3 | 60.7 | > 72.4 | > 84.9 |  |  |  |  |  |  |  |  |  |  |  |  | 
18 | Cc1ccccc1NC(=O)CC(=O)N1N=C(N2c3ccccc3Sc3ccccc32)CC1c1ccccc1 (centres undefined) | > 100 |  |  | > 100 | > 100 |  |  | > 100 | > 100 | > 100 | > 100 | > 100 | > 100 | > 100 |  |  |  |  |  | 

Row | Structure (SMILES) | TGI (SNB-75 CNS) [µM] | TGI (DU-145 prostate) [µM] | TGI (786-0 renal) [µM] | TGI (A549 NSCLC) [µM] | TGI (TK-10 renal) [µM] | TGI (HL-60(TB) leukemia) [µM] | TGI (HS 578T breast) [µM] | TGI (DMS 273 small cell lung) [µM] | TGI (SNB-78 CNS) [µM] | TGI (XF 498 CNS) [µM] | TGI (M19-MEL melanoma) [µM] | TGI (RXF-631 renal) [µM] | TGI (KM20L2 colon) [µM] | TGI (DMS 114 small cell lung) [µM] | GI50 (SNB-75 CNS) [µM] | GI50 (DU-145 prostate) [µM] | GI50 (A549 NSCLC) [µM] | GI50 (TK-10 renal) [µM] | GI50 (HL-60(TB) leukemia) [µM] | GI50 (HS 578T breast) [µM]
19 | C/C(N=Nc1nc2ccccc2[nH]1)=C1/C=CC=CN1O |  | > 100 | > 100 | > 100 | > 100 |  | > 100 |  |  |  |  |  |  |  |  |  |  |  |  | 
20 | CCC(C)C(NC(=O)C1CCCN1C(=O)C(CC(C)C)NC(=O)C(CC(C)C)NC(=O)C(N)CC(C)C)C(=O)NC(C(=O)NCC(=O)NC(CC(N)=O)C(=O)NC(CC(C)C)C(=O)NC(CC(C)C)C(=O)NC(CC(C)C)C(N)=O)C(C)C (centres undefined) (H-LLLPIVGNLLL-NH2; configuration not given here) |  | > 50 | > 50 | > 50 | > 50 | > 50 | > 50 |  |  |  |  |  |  |  |  |  |  |  |  | 
21 | COC(=O)C1=C(O)CCCC(CCC(C)=O)=C1 | > 100 | > 100 | 77.3 | > 100 | > 100 | 43.8 | > 100 |  |  |  |  |  |  |  |  |  |  |  |  | 
22 | CC(=O)c1ccc2c(c1)N(CCCN1CCN(CCO)CC1)c1ccccc1C2 | 30.5 | 28 | 31.5 | 33.3 | 29.1 | 29.2 | 31.2 |  |  |  |  |  |  |  |  |  |  |  |  | 
23 | C1=CC(=[N+]2N=C(c3ccccc3)CC2c2ccccc2)C=CC1=C1SC(c2ccccc2)(c2ccccc2)c2ccccc21 (centres undefined) |  | > 100 | > 100 | > 100 | > 100 | > 100 | > 100 |  |  |  |  |  |  |  |  |  |  |  |  | 
24 | NC(=S)N1N=C(c2ccccc2O)CC1c1ccccc1 (centres undefined) | 52.9 | 81.3 | 60 | 84.6 | 78.3 | 27.4 | 72.4 |  |  |  |  |  |  |  |  |  |  |  |  | 
25 | CCCCCOC(=O)c1cc2cc(CCl)ccc2oc1=O | 31.2 | 17.1 | 18.2 | 41 | 5.3 | 7.19 | > 42.8 |  |  |  |  |  |  |  |  |  |  |  |  | 
26 | COc1cc2c(cc1C)NC(=O)/C2=C/c1c(Cl)n(-c2ccccc2)c2ccccc12 | > 100 | > 100 | 43.3 | > 100 | > 100 | 22 | > 100 |  |  |  |  |  |  |  |  |  |  |  |  | 
27 | CCCN1C(=O)CSC1=Nc1ccc2cc3ccc(N=C4SCC(=O)N4CCC)cc3nc2c1 | > 100 | > 100 | 0.0603 | > 100 | 90.6 | > 100 | > 100 |  |  |  |  |  |  |  | 22.3 | 30.8 | > 100 | 32.1 | > 100 | 35.8
28 | COC(OC)C1OC(CO)C(n2cc(F)c(=O)[nH]c2=O)C1O (centres undefined) | > 100 | 64.4 |  | > 100 | > 100 | > 100 | > 100 |  |  |  |  |  |  |  |  |  |  |  |  | 
29 | Cc1cc(=O)[nH]c(/N=C(\N)Nc2ccc(Cl)cc2)n1 |  | > 100 | > 100 | > 100 | > 100 | > 100 | > 100 |  |  |  |  |  |  |  |  |  |  |  |  | 
30 | CC(C)C1OC(=O)/C=C/C=C/C=C/C=C/C=C/CC(O)C(C)C(O)CC(O)CC(O)CC(O)CC(O)CC(O)CC(O)/C=C/C1C (centres undefined) | > 100 |  |  | > 100 | > 100 |  | > 100 |  |  |  |  |  |  |  |  |  |  |  | 2.13 | 
31 | O=S(=O)(O)c1cc(N=[N+]([O-])c2cc(S(=O)(=O)O)c3ccccc3c2)cc2ccccc12 | 30 | 40.1 | > 100 | > 100 | > 100 | > 100 | > 100 |  |  |  |  |  |  |  |  |  |  |  |  | 
32 | O=[N+]([O-])c1ccc2c(c1)nc(Cc1ccc(Cl)cc1)n2C[C@@H]1CCCN2CCCCC12 (some centres undefined) | 28.3 | 38.1 | 24.5 | 42.1 | 39.9 | 66.1 | 43.3 |  |  |  |  |  |  |  |  |  |  |  |  | 
33 | Cc1nc2ncn3c(c-2c1Cc1ccccc1)NC=C(O)N3 | 67.8 | > 100 | > 100 | > 100 | > 100 | > 100 | > 100 |  |  |  |  |  |  |  |  |  |  |  |  | 
34 | CC(=O)Oc1ccc(CO)cc1OC(C)=O | > 100 |  | > 100 | > 100 | > 100 | 75.2 |  | > 100 | > 100 | > 100 | > 100 | > 100 | > 100 | > 100 |  |  |  |  |  | 
35 | O=c1[nH]c(Nc2ccc(Cl)cc2)nc2nc[nH]c12 | > 100 | > 100 | > 100 | > 100 | > 100 | > 100 | 92.2 |  |  |  |  |  |  |  |  |  |  |  |  | 
36 | CSCCC(NC(=O)OCc1ccccc1)P(=O)(O)c1ccccc1 (centres undefined) | > 100 | > 100 |  | > 100 | > 100 | > 100 | > 100 |  |  |  |  |  |  |  |  |  |  |  |  | 
